Data: patent US4742073A (priority 1982, dated 1988)
Like-named read-outs stand apart in the source and are kept apart here.

Assays:
[1] = Apparent partition coefficient 1-octanol/phosphate buffer pH 7.4; assay type: physicochemical; settings: for log P: pH 7.4
[2] = system: eyes of the rabbits; assay: Ophthalmic pupillary diameter or miosis study; assay type: in vivo, male albino rabbits; settings: for duration of miotic activity of the di-esters: FIG. 5, 0.5% pilocarpine nitrate equivalent; for duration of miotic effect compared with pilocarpine / overall miotic effect compared with pilocarpine: 25 μl topical, pH 4.5, FIG. 3, in words
Method: Twenty-five microliter volumes of each solution were administered by topical ophthalmic instillation to male albino rabbits, and pupillary diameter changes or miotic activities in the eyes of the rabbits were recorded as a function of time, and were compared. A detailed description of the procedure for the miosis study is given in Mitra & Mikkelson (1982) and references cited therein. […] Thus, the miotic activity observed after administration of a solution of O-benzoyl pilocarpic acid 4-methylbenzyl ester lasted for 4.5 hours as shown in FIG. 4. The equivalent concentrations and pH were the same as in the above experiment.
The compounds are: 4-methylbenzyl pilocarpic acid ester, O-benzoyl pilocarpic acid 4-methylbenzyl ester, and O-acetyl pilocarpic acid 4-methylbenzyl ester. In each of these three derivatives the R1 -substituent is the 4-methylbenzyloxy group. […] Duration of the activity of the di-esters is seen to be approximately 4.5 hours.
In FIG. 6 the compounds are the O-benzoyl 4-chlorobenzyl, the O-phenylacetyl benzyl, and the O-3-chlorobenzoyl benzyl pilocarpic acid esters. In FIG. 7 the compounds are the O-benzoyl benzyl, the O-butyryl 4-methylbenzyl and the O-nicotionyl benzyl pilocarpic acid esters. […] Again, the extended duration is apparent. Thus, even though the dosage level is less than in the previous experiments, the miotic effect is apparent for up to 4.5 hours after administration.

[3] = Degradation of O-acyl pilocarpic acid esters and formation of pilocarpine in 75% human plasma; assay type: in vitro ADME; settings: for half-life: 75% plasma
Text: ^b In 75% human plasma (pH 7.4) the 4methylbenzyl ester of pilocarpic
O--acyl esters as determined by HPLC.

[4] = Hydrolysis/stability of O-acyl pilocarpic acid esters in plasma-free buffer (specific base catalysis); assay type: physicochemical; settings: for kOH (catalytic rate constant, specific base-catalyzed hydrolysis): 37° C., based on hydroxide ion activity; for half-life: buffer
Method: ^c The hydrolysis is specific basecatalyzed and the data shown were
obtained by extrapolating experimental rate constants at pH 10-12 to pH
7.4. At 20° C. the t0.5 values were 4.5 and 1.4 years, […]

[5] = Shelf-life / stability of aqueous solutions; assay type: physicochemical
Method: At such pH values the stability is much increased as compared with that at neutral and basic pH values. […] At these pH values solutions of the compound were predicted to have shelf-lives in excess of 8 years at 25° C. and 20 years at 20° C. as determined on the basis of temperature-accelerated kinetic stability studies.

[6] = pKa, solubility and other physicochemical properties; settings: in words
[7] = physchem; assay type: physicochemical
Text: The assays would allow a formation of isopilocarpine or isopilocarpic acid of 1% to be detected.

[8] = octanol/buffer, pH 7.4, di-esters (Table 3), read-out: log P octanol/buffer pH 7.4
[9] = 25 μl of 0.25% (pilocarpine nitrate equivalent), FIGS. 6 and 7
[10] = human, pH 7.4, 37° C., di-esters (Table 3), read-out: t0.5 human plasma (75%)
[11] = octanol/phosphate buffer, pH 7.4, octanol / 0.05 M phosphate buffer pH 7.40, O-acyl derivatives of pilocarpic acid 4-methylbenzyl ester (Table 2), read-out: Partition coefficients (P) (converted)
[12] = 75% human plasma (pH 7.4) at 37° C., in words
[13] = 75% human plasma (pH 7.4) at 37° C., read-out: half-lives of degradation in 75% human plasma
[14] = pH 7.4, 20° C., hydrolysis in buffer pH 7.4, extrapolated (Table 2 footnote c), read-out: t0.5 values at 20° C. (converted)
[15] = pH 7.4, 37° C., extrapolated from rate constants at pH 10-12 to pH 7.4, read-out: t0.5 of hydrolysis to pilocarpic acid 4-methylbenzyl ester, pH 7.4 buffer (converted)
[16] = octanol/phosphate buffer, pH 7.4, Partition coefficients (P)
[17] = 0.5% pilocarpine nitrate equivalent

CC[C@H](C(=O)OCc1ccccc1)[C@H](COC(=O)c1cccc(Cl)c1)Cc1cncn1C [Example 17, O-3-Chlorobenzoyl Pilocarpic Acid Benzyl Ester]
logD [1, 8]: 4.93 | time for which miotic effect is apparent [2, 9]: up to 4.5 hours | half-life [3, 10]: 0.417 h | kOH (catalytic rate constant, specific base-catalyzed hydrolysis) [4]: 0.243 M⁻¹ s⁻¹

CC[C@H](C(=O)OCc1ccccc1)[C@H](COC(=O)c1ccccc1)Cc1cncn1C [Example 14, O-Benzoyl Pilocarpic Acid Benzyl Ester]
logD [1, 8]: 4.22 | time for which miotic effect is apparent [2, 9]: up to 4.5 hours | predicted shelf-life at 20° C. ([5]; aqueous solution pH 3-5, 20° C., temperature-accelerated kinetic stability studies): > 20 years | predicted shelf-life at 25° C. ([5]; aqueous solution pH 3-5, 25° C., temperature-accelerated kinetic stability studies): > 8 years | pH region of maximum stability ([5]; aqueous solutions): 3-5 pH | half-life [3, 10]: 0.2 h | kOH (catalytic rate constant, specific base-catalyzed hydrolysis) [4]: 0.0633 M⁻¹ s⁻¹

CC[C@@H]1C(=O)OC[C@@H]1Cc1cncn1C [Pilocarpine, reference compound]
shelf life in aqueous solutions ([5]; pilocarpine, pH 6.4 and 20° C.): less than 1 year | water solubility of pilocarpine ([6]; free base form and various salts): extremely water-soluble

CC[C@H](C(=O)OCc1ccc(C)cc1)[C@H](COC(C)=O)Cc1cncn1C [Example 12, O-Acetyl Pilocarpic Acid 4-Methylbenzyl Ester]
logD [1, 8]: 3.16 | logD ([1]; octanol/phosphate buffer, pH 7.4, octanol / 0.05 M phosphate buffer pH 7.40 (Table 2), read-out: log P): 3.16 | logD [1, 11]: 3.16 | duration of miotic activity of the di-esters [2]: approximately 4.5 hours | yield of pilocarpic acid 4-methylbenzyl ester formed in plasma [3, 12]: quantitative amounts | half-life [3, 13]: 0.4 h | kOH (catalytic rate constant, specific base-catalyzed hydrolysis) [4]: 0.21 M⁻¹ s⁻¹ | half-life [4, 14]: 511 days | half-life [4, 15]: 62.5 days

CC[C@H](C(=O)OCc1ccccc1)[C@H](COC(=O)Cc1ccccc1)Cc1cncn1C [Example 19, O-Phenylacetyl Pilocarpic Acid Benzyl Ester]
logD [1, 8]: 3.85 | time for which miotic effect is apparent [2, 9]: up to 4.5 hours | half-life [3, 10]: 0.0667 h | kOH (catalytic rate constant, specific base-catalyzed hydrolysis) [4]: 0.362 M⁻¹ s⁻¹

CC[C@H](C(=O)OCc1ccccc1C)[C@H](CO)Cc1cncn1C [Example 6, Pilocarpic Acid 2-Methylbenzyl Ester]
logD [1, 16]: 2.27

CC[C@H](C(=O)OCc1ccc(Cl)cc1)[C@H](CO)Cc1cncn1C [Example 4, Pilocarpic Acid 4-Chlorobenzyl Ester]
logD [1, 16]: 2.54 | duration of miotic effect compared with pilocarpine [2, 17]: most significantly and dramatically longer | overall miotic effect compared with pilocarpine [2, 17]: significantly greater in their overall effect | half-life ([7]; buffer, pH 7.4): 0.5 h

CCCCOC(=O)[C@@H](CC)[C@H](CO)Cc1cncn1C [Example 2, Pilocarpic Acid Butyl Ester]
logD [1, 16]: 1.58 | half-life ([7]; buffer, pH 7.4): 13.7 h

CC[C@H](C(=O)OCc1ccc(C)cc1)[C@H](COC(=O)c1ccccc1)Cc1cncn1C [Example 11, O-Benzoyl Pilocarpic Acid 4-Methylbenzyl Ester]
logD [1, 8]: 4.7 | logD [1, 11]: 4.7 | duration of miotic activity ([2]; 25 μl, 0.5% pilocarpine nitrate equivalent, FIG. 4): 4.5 h | bioavailability relative to pilocarpine ([2]; FIG. 4, 0.5% pilocarpine nitrate equivalent): approximately 4 fold | duration of miotic activity of the di-esters [2]: approximately 4.5 hours | yield of pilocarpic acid 4-methylbenzyl ester formed in plasma [3, 12]: quantitative amounts | sum of the concentrations of O-benzoyl di-ester, intermediate ester and pilocarpine at any time ([3]; 75% human plasma, FIG. 2): 100±3% | half-life [3, 13]: 0.267 h | kOH (catalytic rate constant, specific base-catalyzed hydrolysis) [4]: 0.0667 M⁻¹ s⁻¹ | half-life [4, 14]: 1640 days | half-life [4, 15]: 200 days

CC[C@H](C(=O)OCc1ccc(Cl)cc1)[C@H](COC(=O)c1ccccc1)Cc1cncn1C [Example 15, O-Benzoyl Pilocarpic Acid 4-Chlorobenzyl Ester]
logD [1, 8]: 4.75 | time for which miotic effect is apparent ([2]; 25 μl of 0.125% (pilocarpine nitrate equivalent), FIG. 6): up to 4.5 hours | half-life [3, 10]: 0.283 h | kOH (catalytic rate constant, specific base-catalyzed hydrolysis) [4]: 0.0567 M⁻¹ s⁻¹

CC[C@H](C(=O)OCc1ccccc1)[C@H](CO)Cc1cncn1C [Example 3, Pilocarpic Acid Benzyl Ester]
logD [1, 16]: 1.82 | duration of miotic effect compared with pilocarpine [2, 17]: most significantly and dramatically longer | overall miotic effect compared with pilocarpine [2, 17]: significantly greater in their overall effect | half-life ([7]; buffer, pH 7.4): 0.833 h | hygroscopicity [6]: hygroscopic

CC[C@H](C(=O)OCc1ccc(C)cc1)[C@H](CO)Cc1cncn1C [Example 5, Pilocarpic Acid 4-Methylbenzyl Ester]
logD [1, 16]: 2.31 | duration of miotic effect compared with pilocarpine [2, 17]: most significantly and dramatically longer | overall miotic effect compared with pilocarpine [2, 17]: significantly greater in their overall effect | half-life ([7]; buffer, pH 7.4): 1.28 h | half-life ([7]; plasma-free buffer): 1.28 h | shelf-life (time for 10% decomposition) at 4° C. ([5]; aqueous solution pH 4.0, 4° C.): 3.8 years | shelf-life (time for 10% decomposition) at 20° C. ([5]; aqueous solution pH 4.0, 20° C.): about 1.5 years | extent of cyclization to pilocarpine in plasma [3, 12]: cyclized quantitatively to pilocarpine | half-life ([3]; 75% human plasma (pH 7.4) at 37° C., after formation from the O-acyl esters): 1.38 h

CC[C@H](C(=O)OC(C)c1ccccc1)[C@H](CO)Cc1cncn1C (some centres unmarked) [Example 13, Pilocarpic Acid 1-Phenylethyl Ester]
log P ([1]; octanol/phosphate buffer): 2.08 | logD [1, 16]: 2.08

CC[C@H](C(=O)OCc1ccccc1)[C@H](COC(=O)c1cccnc1)Cc1cncn1C [Example 20, O-Nicotinoyl Pilocarpic Acid Benzyl Ester]
logD [1, 8]: 2.9 | time for which miotic effect is apparent [2, 9]: up to 4.5 hours | half-life [3, 10]: 0.1 h | kOH (catalytic rate constant, specific base-catalyzed hydrolysis) [4]: 0.74 M⁻¹ s⁻¹

CC[C@H](C(=O)OCCc1ccccc1)[C@H](COC(=O)c1ccccc1)Cc1cncn1C [Example 16, O-Benzoyl Pilocarpic Acid 2-Phenylethyl Ester]
logD [1, 8]: 4.6 | half-life [3, 10]: 0.25 h | kOH (catalytic rate constant, specific base-catalyzed hydrolysis) [4]: 0.0633 M⁻¹ s⁻¹

CC[C@H](C(=O)OCCc1ccccc1)[C@H](CO)Cc1cncn1C [Example 9, Pilocarpic Acid 2-Phenylethyl Ester]
log P ([1]; octanol/phosphate buffer): 2.16 | logD [1, 16]: 2.16

CCCC(=O)OCC(Cc1cncn1C)C(CC)C(=O)OCc1ccc(C)cc1 (centres unmarked) [Example 18, O-Butyryl Pilocarpic Acid 4-Methylbenzyl Ester]
logD [1, 8]: 4.09 | time for which miotic effect is apparent [2, 9]: up to 4.5 hours | half-life [3, 10]: 0.25 h | kOH (catalytic rate constant, specific base-catalyzed hydrolysis) [4]: 0.0583 M⁻¹ s⁻¹
